Calls of active or inactive are those of the source. The calls are words filed in the database; no cut-off is given here.

Our source for the IC50 and inhibition values is ChEMBL document CHEMBL2375342, “Novel 5-(benzyloxy)pyridin-2(1H)-one derivatives as potent c-Met inhibitors” (Bioorg Med Chem Lett, 2013).

Test [1] can be described thus: Antiproliferative activity in human EBC1 cells overexpressing c-MET after 72 hrs by sulforhodamine B assay. The test is classed as functional, cell-based. The settings on record: EBC-1, 72 h. For orientation: In SRB staining, fixed cells bind dye roughly in proportion to their protein.
Test [2] addresses T1, Hepatocyte growth factor receptor (Homo sapiens, UniProt P08581). Briefly: Inhibition of c-MET (unknown origin) at 10 uM after 60 mins by ELISA relative to control. (ELISA stands for enzyme-linked immunosorbent assay.)
In test [3] the target is T1, Hepatocyte growth factor receptor. Kind of test: Inhibition of c-MET (unknown origin) at 1 uM after 60 mins by ELISA.
Test [4] has the same target. Briefly: Inhibition of c-MET (unknown origin).
The target of test [5] is Epidermal growth factor receptor (Homo sapiens, UniProt P00533). Kind of test: Inhibition of EGFR (unknown origin).
Sequence of Epidermal growth factor receptor (Homo sapiens, UniProt P00533) (P00533 whole entry): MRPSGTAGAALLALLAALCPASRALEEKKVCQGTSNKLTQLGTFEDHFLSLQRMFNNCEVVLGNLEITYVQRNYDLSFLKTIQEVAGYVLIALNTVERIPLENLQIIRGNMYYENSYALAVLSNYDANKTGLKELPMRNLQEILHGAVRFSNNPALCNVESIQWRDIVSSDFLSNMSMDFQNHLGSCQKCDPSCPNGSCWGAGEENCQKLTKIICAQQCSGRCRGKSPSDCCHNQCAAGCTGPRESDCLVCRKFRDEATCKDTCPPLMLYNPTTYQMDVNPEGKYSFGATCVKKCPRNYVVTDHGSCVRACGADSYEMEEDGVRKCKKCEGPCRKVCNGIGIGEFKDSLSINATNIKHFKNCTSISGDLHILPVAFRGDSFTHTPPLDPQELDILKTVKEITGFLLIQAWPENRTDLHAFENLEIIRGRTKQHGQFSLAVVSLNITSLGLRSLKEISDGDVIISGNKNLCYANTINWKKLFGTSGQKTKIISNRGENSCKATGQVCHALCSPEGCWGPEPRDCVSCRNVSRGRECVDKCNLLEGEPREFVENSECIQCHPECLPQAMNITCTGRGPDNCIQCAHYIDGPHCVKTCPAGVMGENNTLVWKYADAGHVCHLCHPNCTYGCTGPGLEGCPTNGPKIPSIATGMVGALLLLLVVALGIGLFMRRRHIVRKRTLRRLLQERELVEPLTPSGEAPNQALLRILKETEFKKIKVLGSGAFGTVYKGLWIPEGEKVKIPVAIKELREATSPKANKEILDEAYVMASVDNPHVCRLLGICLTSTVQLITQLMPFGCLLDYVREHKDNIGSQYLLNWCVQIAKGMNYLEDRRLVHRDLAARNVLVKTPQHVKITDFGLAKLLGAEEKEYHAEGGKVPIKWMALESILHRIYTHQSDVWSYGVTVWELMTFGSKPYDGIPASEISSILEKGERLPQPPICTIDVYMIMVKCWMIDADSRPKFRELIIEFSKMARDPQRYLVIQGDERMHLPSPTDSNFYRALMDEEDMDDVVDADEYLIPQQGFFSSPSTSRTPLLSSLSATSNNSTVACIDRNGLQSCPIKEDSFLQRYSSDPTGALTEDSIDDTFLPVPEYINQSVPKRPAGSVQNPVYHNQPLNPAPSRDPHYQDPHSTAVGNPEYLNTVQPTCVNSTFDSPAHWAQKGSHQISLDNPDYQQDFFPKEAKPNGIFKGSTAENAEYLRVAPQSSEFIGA
In test [6] the target is Tyrosine-protein kinase ABL1 (Homo sapiens, UniProt P00519). Briefly: Inhibition of ABL (unknown origin).
The target of test [7] is T2, Tyrosine-protein kinase receptor TYRO3 (Homo sapiens, UniProt Q06418).
T2 sequence (Q06418 whole entry): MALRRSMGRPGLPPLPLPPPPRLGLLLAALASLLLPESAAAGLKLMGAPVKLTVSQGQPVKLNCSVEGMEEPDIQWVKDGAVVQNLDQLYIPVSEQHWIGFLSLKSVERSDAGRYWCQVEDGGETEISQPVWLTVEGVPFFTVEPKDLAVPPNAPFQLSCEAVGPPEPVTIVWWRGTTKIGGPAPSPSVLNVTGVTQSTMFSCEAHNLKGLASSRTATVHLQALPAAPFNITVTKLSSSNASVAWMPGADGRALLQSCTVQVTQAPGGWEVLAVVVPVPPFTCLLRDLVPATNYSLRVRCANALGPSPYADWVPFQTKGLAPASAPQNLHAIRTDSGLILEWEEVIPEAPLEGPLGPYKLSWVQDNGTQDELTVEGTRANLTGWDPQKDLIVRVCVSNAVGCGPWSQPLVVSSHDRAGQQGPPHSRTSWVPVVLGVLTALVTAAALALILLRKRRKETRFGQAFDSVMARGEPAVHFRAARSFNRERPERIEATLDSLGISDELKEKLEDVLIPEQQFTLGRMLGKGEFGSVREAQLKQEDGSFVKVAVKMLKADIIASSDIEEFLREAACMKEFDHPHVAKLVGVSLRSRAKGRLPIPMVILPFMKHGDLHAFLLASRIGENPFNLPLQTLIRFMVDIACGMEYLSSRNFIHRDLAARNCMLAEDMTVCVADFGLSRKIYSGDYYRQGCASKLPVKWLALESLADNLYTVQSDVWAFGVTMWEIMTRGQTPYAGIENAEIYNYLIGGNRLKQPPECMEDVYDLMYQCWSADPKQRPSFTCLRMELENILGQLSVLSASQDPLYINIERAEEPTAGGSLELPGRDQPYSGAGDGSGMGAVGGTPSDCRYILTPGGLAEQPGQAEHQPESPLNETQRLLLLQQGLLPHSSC
Briefly: Inhibition of TYRO3 (unknown origin).

In test [8] the target is T1, Hepatocyte growth factor receptor. Kind of test: Inhibition of c-MET (unknown origin) after 60 mins by ELISA.
The target of test [9] is Proto-oncogene tyrosine-protein kinase receptor Ret (Homo sapiens, UniProt P07949). Kind of test: Inhibition of RET (unknown origin).
The target in test [10] is Platelet-derived growth factor receptor alpha (Homo sapiens, UniProt P16234). Briefly: Inhibition of PDGFRalpha (unknown origin).
For test [11], the target named is Receptor tyrosine-protein kinase erbB-4 (Homo sapiens, UniProt Q15303). Kind of test: Inhibition of ERBB4 (unknown origin).
Test [12] deals with Vascular endothelial growth factor receptor 2 (Homo sapiens, UniProt P35968). Kind of test: Inhibition of KDR (unknown origin).
The target of test [13] is Vascular endothelial growth factor receptor 1 (Homo sapiens, UniProt P17948). Briefly: Inhibition of FLT1 (unknown origin).
Test [14] addresses Receptor tyrosine-protein kinase erbB-2 (Homo sapiens, UniProt P04626). Briefly: Inhibition of ERBB2 (unknown origin).
The target in test [15] is Epidermal growth factor receptor (Homo sapiens, UniProt P00533, L858R/T790M). Kind of test: Inhibition of EGFR T790M/L858R double mutant (unknown origin). The format is protein assay.
Test [16] deals with Macrophage-stimulating protein receptor (Homo sapiens, UniProt Q04912). Briefly: Inhibition of RON (unknown origin).
Sequence of Macrophage-stimulating protein receptor (Q04912 25-304 limits assumed): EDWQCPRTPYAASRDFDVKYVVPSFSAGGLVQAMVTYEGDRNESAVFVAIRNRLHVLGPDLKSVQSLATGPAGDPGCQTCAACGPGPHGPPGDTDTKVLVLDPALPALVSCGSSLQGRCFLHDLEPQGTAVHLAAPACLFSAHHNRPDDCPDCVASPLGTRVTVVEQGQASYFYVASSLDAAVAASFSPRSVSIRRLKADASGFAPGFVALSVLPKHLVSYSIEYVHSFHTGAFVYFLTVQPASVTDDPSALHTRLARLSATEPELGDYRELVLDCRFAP
Sequence of Macrophage-stimulating protein receptor (Q04912 310-1400 limits assumed): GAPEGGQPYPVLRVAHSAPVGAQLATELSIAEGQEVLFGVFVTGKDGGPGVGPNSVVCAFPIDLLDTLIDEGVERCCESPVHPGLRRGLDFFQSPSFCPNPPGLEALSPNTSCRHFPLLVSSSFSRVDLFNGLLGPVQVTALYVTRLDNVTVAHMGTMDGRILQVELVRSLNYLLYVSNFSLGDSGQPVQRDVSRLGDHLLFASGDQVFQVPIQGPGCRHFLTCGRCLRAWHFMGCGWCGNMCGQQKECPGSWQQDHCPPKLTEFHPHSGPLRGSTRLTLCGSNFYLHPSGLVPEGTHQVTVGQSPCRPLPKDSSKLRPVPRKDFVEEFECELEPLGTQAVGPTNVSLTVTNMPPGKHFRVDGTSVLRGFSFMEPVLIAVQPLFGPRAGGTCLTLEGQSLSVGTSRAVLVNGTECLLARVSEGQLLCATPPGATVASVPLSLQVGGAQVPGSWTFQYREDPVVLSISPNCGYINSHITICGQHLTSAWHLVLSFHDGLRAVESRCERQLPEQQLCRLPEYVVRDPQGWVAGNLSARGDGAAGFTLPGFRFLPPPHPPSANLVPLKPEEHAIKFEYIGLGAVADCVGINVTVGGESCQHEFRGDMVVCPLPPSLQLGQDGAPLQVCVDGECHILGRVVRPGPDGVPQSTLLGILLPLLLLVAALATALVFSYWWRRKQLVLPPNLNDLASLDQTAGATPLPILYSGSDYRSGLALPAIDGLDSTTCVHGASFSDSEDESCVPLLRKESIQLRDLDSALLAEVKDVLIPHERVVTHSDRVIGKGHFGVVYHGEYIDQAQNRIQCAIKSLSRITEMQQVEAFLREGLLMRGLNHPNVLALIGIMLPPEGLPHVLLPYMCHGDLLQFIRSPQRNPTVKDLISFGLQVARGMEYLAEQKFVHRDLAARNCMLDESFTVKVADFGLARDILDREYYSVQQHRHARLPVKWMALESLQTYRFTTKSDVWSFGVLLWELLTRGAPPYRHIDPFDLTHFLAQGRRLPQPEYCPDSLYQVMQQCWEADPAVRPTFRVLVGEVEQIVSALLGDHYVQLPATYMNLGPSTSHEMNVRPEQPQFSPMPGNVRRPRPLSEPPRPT
Test [17] deals with Fibroblast growth factor receptor 1 (Homo sapiens, UniProt P11362). Briefly: Inhibition of FGFR1 (unknown origin).
Sequence of Fibroblast growth factor receptor 1 (P11362 whole entry): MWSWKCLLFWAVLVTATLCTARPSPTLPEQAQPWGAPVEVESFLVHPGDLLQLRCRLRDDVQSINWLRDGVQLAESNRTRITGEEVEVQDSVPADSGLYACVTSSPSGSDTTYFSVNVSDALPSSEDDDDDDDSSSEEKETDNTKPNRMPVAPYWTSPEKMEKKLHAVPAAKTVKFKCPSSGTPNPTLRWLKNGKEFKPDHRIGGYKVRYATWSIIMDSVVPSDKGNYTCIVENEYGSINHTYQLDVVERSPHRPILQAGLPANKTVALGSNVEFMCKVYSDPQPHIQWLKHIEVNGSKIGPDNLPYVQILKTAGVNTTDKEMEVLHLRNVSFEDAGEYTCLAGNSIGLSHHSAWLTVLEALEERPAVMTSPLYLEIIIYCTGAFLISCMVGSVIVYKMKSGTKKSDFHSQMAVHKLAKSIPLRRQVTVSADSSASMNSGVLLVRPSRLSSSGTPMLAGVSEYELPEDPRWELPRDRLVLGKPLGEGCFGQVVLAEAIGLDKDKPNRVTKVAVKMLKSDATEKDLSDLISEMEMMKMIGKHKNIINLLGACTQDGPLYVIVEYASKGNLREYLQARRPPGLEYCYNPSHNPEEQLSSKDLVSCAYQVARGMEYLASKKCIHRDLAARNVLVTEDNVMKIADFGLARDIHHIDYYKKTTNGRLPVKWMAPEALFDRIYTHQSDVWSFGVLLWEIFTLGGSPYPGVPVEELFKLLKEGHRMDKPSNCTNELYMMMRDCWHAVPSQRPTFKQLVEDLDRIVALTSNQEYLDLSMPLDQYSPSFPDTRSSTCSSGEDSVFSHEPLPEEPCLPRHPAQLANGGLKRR

T1 sequence (P08581 whole entry): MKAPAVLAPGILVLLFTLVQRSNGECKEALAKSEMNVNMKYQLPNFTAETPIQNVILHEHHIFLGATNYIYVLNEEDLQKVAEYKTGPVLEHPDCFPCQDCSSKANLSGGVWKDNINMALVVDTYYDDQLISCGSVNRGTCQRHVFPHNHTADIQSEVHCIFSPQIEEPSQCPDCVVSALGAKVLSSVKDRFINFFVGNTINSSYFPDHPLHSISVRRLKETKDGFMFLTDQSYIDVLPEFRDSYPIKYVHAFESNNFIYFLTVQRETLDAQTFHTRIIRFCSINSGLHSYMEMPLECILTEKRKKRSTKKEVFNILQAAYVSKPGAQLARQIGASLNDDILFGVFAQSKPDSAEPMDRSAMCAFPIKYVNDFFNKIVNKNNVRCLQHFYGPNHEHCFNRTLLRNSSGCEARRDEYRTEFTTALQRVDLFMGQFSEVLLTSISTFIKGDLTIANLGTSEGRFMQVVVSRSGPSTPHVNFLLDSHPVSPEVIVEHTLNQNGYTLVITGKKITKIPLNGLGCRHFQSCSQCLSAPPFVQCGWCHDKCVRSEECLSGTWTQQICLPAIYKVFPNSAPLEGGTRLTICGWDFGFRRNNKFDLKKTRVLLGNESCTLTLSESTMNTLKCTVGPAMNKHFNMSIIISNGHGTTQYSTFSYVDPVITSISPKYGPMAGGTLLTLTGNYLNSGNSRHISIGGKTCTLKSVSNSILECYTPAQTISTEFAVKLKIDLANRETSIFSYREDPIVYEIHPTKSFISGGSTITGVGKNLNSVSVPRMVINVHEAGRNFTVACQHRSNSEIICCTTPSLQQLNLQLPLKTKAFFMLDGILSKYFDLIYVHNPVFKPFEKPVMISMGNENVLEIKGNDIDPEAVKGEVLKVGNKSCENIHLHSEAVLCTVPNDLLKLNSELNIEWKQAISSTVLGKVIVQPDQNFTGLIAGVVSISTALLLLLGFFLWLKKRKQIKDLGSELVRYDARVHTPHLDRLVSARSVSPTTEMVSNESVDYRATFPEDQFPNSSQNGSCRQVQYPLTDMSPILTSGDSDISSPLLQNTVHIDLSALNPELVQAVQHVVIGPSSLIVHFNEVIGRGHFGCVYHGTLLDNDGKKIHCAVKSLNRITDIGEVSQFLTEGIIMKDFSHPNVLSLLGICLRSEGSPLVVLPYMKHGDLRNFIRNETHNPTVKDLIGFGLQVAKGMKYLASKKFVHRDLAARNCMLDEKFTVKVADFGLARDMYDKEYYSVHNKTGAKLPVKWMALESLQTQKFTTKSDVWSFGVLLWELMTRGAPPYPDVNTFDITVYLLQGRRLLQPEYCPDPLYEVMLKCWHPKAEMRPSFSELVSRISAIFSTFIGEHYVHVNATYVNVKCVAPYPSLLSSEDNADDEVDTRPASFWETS

Turning to `C[C@@H](Oc1c[nH]c(=O)c(C(=O)Nc2ccc(N3CCN(C)CC3)nc2)c1)c1c(Cl)ccc(F)c1Cl`, the IC50 (commonly the point on the concentration scale where inhibition reaches its midpoint) in test [1] came out at 3900 nM.

`C[C@@H](Oc1c[nH]c(=O)c(C(=O)Nc2ccc3c(c2)CN(CCN(C)C)C3=O)c1)c1c(Cl)ccc(F)c1Cl` registered an IC50 in test [1] of 2600 nM.

In [1], `C[C@@H](Oc1c[nH]c(=O)c(C(=O)Nc2cnn(CCO)c2)c1)c1c(Cl)ccc(F)c1Cl` gave an IC50 of 1100 nM.

For the molecule `C[C@@H](Oc1c[nH]c(=O)c(C(=O)NCc2ccc(NS(C)(=O)=O)cc2)c1)c1c(Cl)ccc(F)c1Cl`, in [2], the inhibition (as a rule, the drop in the measured response relative to a control, in per cent) is below 50%.

Regarding `CCN1CCN(c2ccc(NC(=O)c3cc(O[C@H](C)c4c(Cl)ccc(F)c4Cl)c[nH]c3=O)c(OC)c2)CC1`, the inhibition entry in [3] was “inactive”.

In the case of `C[C@@H](Oc1c[nH]c(=O)c(C(=O)NC2CCN(C)CC2)c1)c1c(Cl)ccc(F)c1Cl`, the inhibition in test [2] was below 50%.

In the case of `C[C@@H](Oc1cc(C(=O)Nc2ccc(C(=O)N3CCN(C)CC3)cc2)nnc1N)c1c(Cl)ccc(F)c1Cl`, the midpoint of inhibition in test [4], the IC50, lay at 0.69 nM.

Consider `C[C@@H](Oc1c[nH]c(=O)c(C(=O)Nc2ccc(CN3CCN(C)CC3)cc2)c1)c1c(Cl)ccc(F)c1Cl`, for which the IC50 in test [1] amounted to 1100 nM.

Regarding `C[C@@H](Oc1c[nH]c(=O)c(C(=O)Nc2ccc(N3CCN(C)CC3)cc2)c1)c1c(Cl)ccc(F)c1Cl`, the IC50 in [5] was above 1000 nM; in test [6] it was 281 nM; in test [1] it was 2200 nM; in [7] it was above 1000 nM; in [8], 12 nM; in test [9] it was above 1000 nM. For the same molecule, the IC50 in test [10], in test [11], in [12], in test [13], in test [14] and in [15] was above 1000 nM each time. In addition, the IC50 in test [16] is 446 nM; in test [17] it was above 1000 nM.

Take `C[C@@H](Oc1c[nH]c(=O)c(C(=O)Nc2cnn(C3CCNCC3)c2)c1)c1c(Cl)ccc(F)c1Cl`: half-maximal inhibition in test [1] (IC50) required 1000 nM.

On to `C[C@@H](Oc1c[nH]c(=O)c(C(=O)Nc2cnn(C)c2)c1)c1c(Cl)ccc(F)c1Cl`, for which the IC50 in test [1] came to 9800 nM.

In [2], `C[C@@H](Oc1c[nH]c(=O)c(C(=O)NCc2ccc(N3CCOCC3)cc2)c1)c1c(Cl)ccc(F)c1Cl` registered an inhibition below 50%.

Take `C[C@@H](Oc1c[nH]c(=O)c(C(=O)Nc2ccc(OCCN3CCOCC3)cc2)c1)c1c(Cl)ccc(F)c1Cl`: in [1], the IC50 worked out at 5900 nM.

Consider `COc1ncc(O[C@H](C)c2c(Cl)ccc(F)c2Cl)cc1C(=O)Nc1ccc(N2CCN(C)CC2)cc1`, for which the inhibition entry in [3] was “inactive”.
